# Laboratory results published in PubChem BioAssay (NCI).
# Several values for one entry are separate records, joined by “and”; a condition that tells them apart may be missing. Identical values can stand only once.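 Values below derive from 48-hour exposures of cells grown in 96-well plates, with endpoints linearly interpolated between the two concentrations bracketing the appropriate inhibition level. GI50 is the concentration that inhibits growth by half. TGI: concentration producing complete growth inhibition.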
# What was measured:
# Experiment in all cases: growth of human tumour cells (NCI), 48 h
# HCT-15 colon = system: HCT-15 colon
# SK-MEL-2 melanoma = system: SK-MEL-2 melanoma
# OVCAR-8 ovarian = system: OVCAR-8 ovarian
# RPMI-8226 leukemia = system: RPMI-8226 leukemia
# COLO 205 colon = system: COLO 205 colon
# EKVX NSCLC = system: EKVX NSCLC
# U251 CNS = system: U251 CNS
# SF-539 CNS = system: SF-539 CNS
# SNB-75 CNS = system: SNB-75 CNS
# HL-60(TB) leukemia = system: HL-60(TB) leukemia
smiles,measurement,setting,value
COc1cc(C2c3cc4c(cc3[C@@H](Nc3ccc(C(=O)O)cc3)C3COC(=O)[C@H]23)OCO4)cc(OC)c1O (stereo partly drawn),TGI,HCT-15 colon,32.8 µM and > 17.5 µM
same,TGI,SK-MEL-2 melanoma,75.3 µM and > 17.5 µM
same,TGI,OVCAR-8 ovarian,54 µM and > 17.5 µM
same,GI50,RPMI-8226 leukemia,5.7 µM and 2.71 µM
same,TGI,RPMI-8226 leukemia,30.2 µM and 6.54 µM
same,GI50,COLO 205 colon,26.8 µM and 12.9 µM
same,TGI,COLO 205 colon,> 100 µM
same,TGI,EKVX NSCLC,> 100 µM
same,GI50,U251 CNS,12.6 µM and 6.13 µM
same,TGI,U251 CNS,53 µM and > 17.5 µM
same,TGI,SF-539 CNS,32.7 µM and > 17.5 µM
same,TGI,SNB-75 CNS,27.6 µM and > 17.5 µM
same,TGI,HL-60(TB) leukemia,22.8 µM and 16.7 µM
Clc1nc(Oc2ccccc2)nc(-c2cn(-c3ccccc3)c3ccccc23)n1,GI50,HCT-15 colon,5.38 µM
same,TGI,HCT-15 colon,18 µM
same,GI50,SK-MEL-2 melanoma,4.66 µM
same,TGI,SK-MEL-2 melanoma,18.5 µM
same,GI50,OVCAR-8 ovarian,3.25 µM
same,TGI,OVCAR-8 ovarian,11 µM
same,GI50,RPMI-8226 leukemia,3.29 µM
same,TGI,RPMI-8226 leukemia,21.5 µM
same,GI50,COLO 205 colon,10.6 µM
same,TGI,COLO 205 colon,24.6 µM
same,GI50,EKVX NSCLC,14.6 µM
same,TGI,EKVX NSCLC,46.9 µM
same,GI50,U251 CNS,2.53 µM
same,TGI,U251 CNS,6.36 µM
same,GI50,SF-539 CNS,16.1 µM
same,TGI,SF-539 CNS,30 µM
same,GI50,SNB-75 CNS,13.7 µM
same,TGI,SNB-75 CNS,26.6 µM
same,GI50,HL-60(TB) leukemia,0.773 µM
C[CH2][Sn]1([CH2]C)[O]C(=O)[O][Sn]([CH2]C)([CH2]C)[O]1,GI50,HCT-15 colon,25.3 µM
same,TGI,HCT-15 colon,> 54.4 µM
same,GI50,SK-MEL-2 melanoma,15.8 µM
same,TGI,SK-MEL-2 melanoma,29.6 µM
same,GI50,OVCAR-8 ovarian,14.2 µM
same,TGI,OVCAR-8 ovarian,20.4 µM
same,GI50,RPMI-8226 leukemia,17.2 µM
same,TGI,RPMI-8226 leukemia,47.6 µM
same,GI50,COLO 205 colon,> 41.1 µM
same,TGI,COLO 205 colon,> 57.1 µM
same,GI50,EKVX NSCLC,> 41.8 µM
same,TGI,EKVX NSCLC,> 57 µM
same,GI50,U251 CNS,14.8 µM
same,TGI,U251 CNS,29.8 µM
same,GI50,SF-539 CNS,19.7 µM
same,TGI,SF-539 CNS,38.5 µM
same,GI50,SNB-75 CNS,> 63.8 µM
same,TGI,SNB-75 CNS,> 86.7 µM
same,GI50,HL-60(TB) leukemia,26.4 µM
same,TGI,HL-60(TB) leukemia,81.7 µM
CCCCCCNC(=O)C1=C(C)NC(C)=C(C(=O)NCCCCCC)C1,TGI,HCT-15 colon,> 100 µM
same,TGI,SK-MEL-2 melanoma,> 100 µM
same,TGI,OVCAR-8 ovarian,> 100 µM
same,TGI,RPMI-8226 leukemia,> 100 µM
same,TGI,COLO 205 colon,> 100 µM
same,TGI,EKVX NSCLC,> 100 µM
same,TGI,U251 CNS,> 100 µM
same,TGI,SF-539 CNS,> 100 µM
same,TGI,SNB-75 CNS,> 100 µM
same,TGI,HL-60(TB) leukemia,> 100 µM
Oc1ccc(N=Nc2ccc(Cl)cc2)cc1,TGI,HCT-15 colon,32.8 µM
same,TGI,SK-MEL-2 melanoma,28.4 µM
same,TGI,OVCAR-8 ovarian,38.2 µM
same,TGI,RPMI-8226 leukemia,80.4 µM
same,TGI,COLO 205 colon,33.4 µM
same,TGI,EKVX NSCLC,31.8 µM
same,TGI,U251 CNS,29.7 µM
same,TGI,SF-539 CNS,36.7 µM
same,TGI,SNB-75 CNS,46.1 µM
same,TGI,HL-60(TB) leukemia,52.3 µM
CC(C)c1ccc(Cc2cnc(NC(=O)c3cc(Br)cs3)s2)cc1,GI50,HCT-15 colon,0.789 µM
same,TGI,HCT-15 colon,> 100 µM
same,GI50,SK-MEL-2 melanoma,7.43 µM
same,TGI,SK-MEL-2 melanoma,64.4 µM
same,GI50,OVCAR-8 ovarian,4.4 µM
same,TGI,OVCAR-8 ovarian,> 100 µM
same,GI50,RPMI-8226 leukemia,3.6 µM
same,TGI,RPMI-8226 leukemia,> 100 µM
same,GI50,COLO 205 colon,2.92 µM
same,TGI,COLO 205 colon,15 µM
same,GI50,EKVX NSCLC,4 µM
same,TGI,EKVX NSCLC,> 100 µM
same,GI50,U251 CNS,3.42 µM
same,TGI,U251 CNS,> 100 µM
same,GI50,SF-539 CNS,2.04 µM
same,TGI,SF-539 CNS,5.64 µM
same,GI50,SNB-75 CNS,1.05 µM
same,TGI,SNB-75 CNS,7.76 µM
same,GI50,HL-60(TB) leukemia,3.6 µM
same,TGI,HL-60(TB) leukemia,> 100 µM
O=C(O)C1CCc2ccc3ccccc3c2C1c1cccc2ccccc12 (stereo not drawn),TGI,HCT-15 colon,45.9 µM
same,TGI,SK-MEL-2 melanoma,38.6 µM
same,TGI,OVCAR-8 ovarian,52.1 µM
same,TGI,RPMI-8226 leukemia,> 100 µM
same,TGI,COLO 205 colon,77.7 µM
same,TGI,EKVX NSCLC,85.8 µM
same,TGI,U251 CNS,33.8 µM
same,TGI,SF-539 CNS,49.8 µM
same,TGI,SNB-75 CNS,90.1 µM
same,TGI,HL-60(TB) leukemia,62 µM
COC(=O)CCC/C=C\C[C@H]1C=CC(=O)/C1=C/C[C@@H](O)CCc1cccc(C(F)(F)F)c1,GI50,HCT-15 colon,1.67 µM
same,TGI,HCT-15 colon,4.18 µM
same,GI50,SK-MEL-2 melanoma,3.19 µM
same,TGI,SK-MEL-2 melanoma,11.5 µM
same,GI50,OVCAR-8 ovarian,3.31 µM
same,TGI,OVCAR-8 ovarian,11.8 µM
same,GI50,RPMI-8226 leukemia,2.85 µM
same,TGI,RPMI-8226 leukemia,14 µM
same,GI50,COLO 205 colon,2.39 µM
same,TGI,COLO 205 colon,5.85 µM
same,GI50,EKVX NSCLC,4.52 µM
same,TGI,EKVX NSCLC,16.4 µM
same,GI50,U251 CNS,2.06 µM
same,TGI,U251 CNS,4.96 µM
same,GI50,SF-539 CNS,2.9 µM
same,TGI,SF-539 CNS,9.24 µM
same,GI50,SNB-75 CNS,5.46 µM
same,TGI,SNB-75 CNS,18.9 µM
same,GI50,HL-60(TB) leukemia,2.53 µM
same,TGI,HL-60(TB) leukemia,7.17 µM
S=C(Nc1ccc(-c2nc3ccccc3[nH]2)cc1)NC1CCCCC1,GI50,HCT-15 colon,16.2 µM
same,TGI,HCT-15 colon,37.9 µM
same,GI50,SK-MEL-2 melanoma,36.5 µM
same,GI50,OVCAR-8 ovarian,26.3 µM
same,TGI,OVCAR-8 ovarian,83.7 µM
same,GI50,RPMI-8226 leukemia,16.6 µM
same,TGI,RPMI-8226 leukemia,90.2 µM
same,TGI,COLO 205 colon,> 100 µM
same,GI50,EKVX NSCLC,28.5 µM
same,GI50,U251 CNS,19.7 µM
same,TGI,U251 CNS,45.2 µM
same,GI50,SF-539 CNS,22.6 µM
same,TGI,SF-539 CNS,48.5 µM
same,GI50,SNB-75 CNS,25.1 µM
same,TGI,SNB-75 CNS,> 100 µM
same,GI50,HL-60(TB) leukemia,46.9 µM
CN1CCN(CCSC2Cc3cc(Cl)ccc3Sc3ccccc32)CC1 (stereo not drawn),TGI,HCT-15 colon,12.2 µM
same,TGI,SK-MEL-2 melanoma,3.75 µM
same,TGI,OVCAR-8 ovarian,19.4 µM
same,TGI,RPMI-8226 leukemia,5.34 µM
same,TGI,COLO 205 colon,3.26 µM
same,TGI,EKVX NSCLC,29.2 µM
same,TGI,U251 CNS,19.1 µM
same,TGI,SF-539 CNS,11.7 µM
same,TGI,SNB-75 CNS,15.7 µM
same,TGI,HL-60(TB) leukemia,5.46 µM
